Measurements published in PubChem BioAssay AID248 (DTP/NCI, 2004).
Values joined by “and” are separate entries in the source; they are usually repeats but may differ in a detail not shown here. Equal entries are not always repeated. Inconclusive results and toxic doses are left out.

System: L1210 leukemia ip in BDF1 mice, survival T/C
Experiment: NCI In Vivo Anticancer Drug Screen. Data for tumor model L1210 Leukemia (intraperitoneal) in B6D2F1 (BDF1) mice
Conditions: endpoint: mean survival time, higher = longer survival
Procedure, shortened: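 Tumor was transplanted into mice, which were then dosed with test compound or vehicle alone. Survival was recorded for each group, and the treated figure was expressed relative to the control figure.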

[1] = dose: 50.0 mg/kg/injection, schedule: Q04DX003 (ip), vehicle: saline
[2] = dose: 100.0 mg/kg/injection, schedule: Q01DX009 (ip), vehicle: saline
[3] = dose: 100.0 mg/kg/injection, schedule: Q04DX003 (ip), vehicle: saline
[4] = dose: 200.0 mg/kg/injection, schedule: Q01DX009 (ip), vehicle: saline
[5] = dose: 200.0 mg/kg/injection, schedule: Q04DX003 (ip), vehicle: saline
[6] = dose: 400.0 mg/kg/injection, schedule: Q04DX003 (ip), vehicle: saline
[7] = dose: 25.0 mg/kg/injection, schedule: Q04DX003 (ip), vehicle: saline
[8] = dose: 200.0 mg/kg/injection, schedule: Q01DX001 (ip), vehicle: saline
[9] = dose: 100.0 mg/kg/injection, schedule: Q01DX009 (ip), vehicle: saline with Tween-80
[10] = dose: 200.0 mg/kg/injection, schedule: Q01DX009 (ip), vehicle: saline with Tween-80
[11] = dose: 400.0 mg/kg/injection, schedule: Q01DX009 (ip), vehicle: saline with Tween-80
[12] = dose: 100.0 mg/kg/injection, schedule: Q01DX001 (ip), vehicle: saline

SMILES: C=C1C(=O)O[C@H]2C[C@@]3(C)[C@H](O)CCC(=C)[C@@H]3[C@@H](OC(C)=O)[C@H]12
- T/C (dose: 25.0 mg/kg/injection, schedule: Q04DX002 (ip), vehicle: saline with Tween-80): 86 % of control
- T/C (dose: 50.0 mg/kg/injection, schedule: Q04DX002 (ip), vehicle: saline with Tween-80): 93 % of control
- T/C (dose: 100.0 mg/kg/injection, schedule: Q04DX002 (ip), vehicle: saline with Tween-80): 108 % of control and 90 % of control

SMILES: CC(=O)NCCCCCC(=O)O
- T/C (dose: 25.0 mg/kg/injection, schedule: Q01DX009 (ip), vehicle: saline): 97 % of control
- T/C (dose: 50.0 mg/kg/injection, schedule: Q01DX009 (ip), vehicle: saline): 105 % of control
- T/C [1]: 102 % of control
- T/C (dose: 100.0 mg/kg/injection, schedule: Q01DX009 (ip), vehicle: Klucel (hydroxypropylcellulose) (HPC)): 98 % of control and 90 % of control
- T/C [2]: 108 % of control
- T/C (dose: 100.0 mg/kg/injection, schedule: Q04DX003 (ip), vehicle: Klucel (hydroxypropylcellulose) (HPC)): 101 % of control and 88 % of control
- T/C [3]: 103 % of control
- T/C (dose: 200.0 mg/kg/injection, schedule: Q01DX009 (ip), vehicle: Klucel (hydroxypropylcellulose) (HPC)): 97 % of control and 101 % of control
- T/C [4]: 100 % of control
- T/C (dose: 200.0 mg/kg/injection, schedule: Q04DX003 (ip), vehicle: Klucel (hydroxypropylcellulose) (HPC)): 101 % of control and 90 % of control
- T/C [5]: 104 % of control
- T/C (dose: 400.0 mg/kg/injection, schedule: Q01DX009 (ip), vehicle: Klucel (hydroxypropylcellulose) (HPC)): 101 % of control
- T/C (dose: 400.0 mg/kg/injection, schedule: Q01DX009 (ip), vehicle: saline): 100 % of control
- T/C (dose: 400.0 mg/kg/injection, schedule: Q04DX003 (ip), vehicle: Klucel (hydroxypropylcellulose) (HPC)): 95 % of control and 101 % of control
- T/C [6]: 96 % of control
- T/C (dose: 800.0 mg/kg/injection, schedule: Q04DX003 (ip), vehicle: saline): 95 % of control

SMILES: CCOC(=O)NC1CCCCC1
- T/C (dose: 100.0 mg/kg/injection, schedule: Q01DX001 (ip), vehicle: gum acacia): 97 % of control
- T/C (dose: 200.0 mg/kg/injection, schedule: Q01DX001 (ip), vehicle: gum acacia): 97 % of control
- T/C (dose: 400.0 mg/kg/injection, schedule: Q01DX001 (ip), vehicle: gum acacia): 105 % of control

SMILES: Cc1nc(N)nc(N)c1-c1ccc(Cl)c(Cl)c1
- T/C (dose: 0.6 mg/kg/injection, schedule: Q01DX Z (ip), vehicle: methylcellulose (MC)): 106 % of control
- T/C (dose: 1.0 mg/kg/injection, schedule: Q01DX009 (ip), vehicle: saline with Tween-80): 102 % of control
- T/C (dose: 1.0 mg/kg/injection, schedule: Q01DX Z (ip), vehicle: methylcellulose (MC)): 102 % of control
- T/C (dose: 1.0 mg/kg/injection, schedule: Q04DX009 (ip), vehicle: Klucel (hydroxypropylcellulose) (HPC)): 96 % of control
- T/C (dose: 1.08 mg/kg/injection, schedule: Q01DX009 (ip), vehicle: saline): 117 % of control
- T/C (dose: 1.5 mg/kg/injection, schedule: Q01DX Z (ip), vehicle: methylcellulose (MC)): 106 % of control
- T/C (dose: 1.8 mg/kg/injection, schedule: Q01DX009 (ip), vehicle: saline): 107 % of control
- T/C (dose: 2.0 mg/kg/injection, schedule: Q04DX009 (ip), vehicle: Klucel (hydroxypropylcellulose) (HPC)): 120 % of control
- T/C (dose: 2.3 mg/kg/injection, schedule: Q01DX Z (ip), vehicle: methylcellulose (MC)): 112 % of control
- T/C (dose: 3.0 mg/kg/injection, schedule: Q01DX009 (ip), vehicle: saline): 114 % of control
- T/C (dose: 3.0 mg/kg/injection, schedule: Q01DX010 (sc), vehicle: other): 152 % of control
- T/C (dose: 4.0 mg/kg/injection, schedule: Q01DX010 (sc), vehicle: other): 152 % of control
- T/C (dose: 4.0 mg/kg/injection, schedule: Q01DX Z (ip), vehicle: methylcellulose (MC)): 118 % of control
- T/C (dose: 5.0 mg/kg/injection, schedule: Q01DX009 (ip), vehicle: saline): 122 % of control
- T/C (dose: 6.0 mg/kg/injection, schedule: Q01DX Z (ip), vehicle: methylcellulose (MC)): 123 % of control
- T/C (dose: 8.0 mg/kg/injection, schedule: Q01DX009 (ip), vehicle: saline with Tween-80): 102 % of control
- T/C (dose: 8.0 mg/kg/injection, schedule: Q04DX009 (ip), vehicle: Klucel (hydroxypropylcellulose) (HPC)): 115 % of control
- T/C (dose: 8.4 mg/kg/injection, schedule: Q04DX003 (ip), vehicle: saline): 102 % of control
- T/C (dose: 12.5 mg/kg/injection, schedule: Q04DX003 (ip), vehicle: saline): 95 % of control
- T/C (dose: 14.0 mg/kg/injection, schedule: Q04DX003 (ip), vehicle: saline): 115 % of control
- T/C (dose: 16.0 mg/kg/injection, schedule: Q01DX009 (ip), vehicle: saline with Tween-80): 90 % of control
- T/C (dose: 16.0 mg/kg/injection, schedule: Q04DX009 (ip), vehicle: Klucel (hydroxypropylcellulose) (HPC)): 110 % of control
- T/C (dose: 23.0 mg/kg/injection, schedule: Q04DX003 (ip), vehicle: saline): 105 % of control
- T/C (dose: 25.0 mg/kg/injection, schedule: Q01DX001 (ip), vehicle: saline): 98 % of control
- T/C [7]: 122 % of control
- T/C (dose: 39.0 mg/kg/injection, schedule: Q04DX003 (ip), vehicle: saline): 119 % of control
- T/C (dose: 50.0 mg/kg/injection, schedule: Q01DX001 (ip), vehicle: saline): 112 % of control
- T/C (dose: 65.0 mg/kg/injection, schedule: Q04DX003 (ip), vehicle: saline): 115 % of control
- T/C [8]: 88 % of control

SMILES: N#CCCN1CCCC(=O)NC1=O
- T/C [9]: 103 % of control
- T/C [3]: 105 % of control
- T/C [10]: 94 % of control
- T/C [5]: 103 % of control
- T/C [11]: 97 % of control
- T/C [6]: 100 % of control

SMILES: COC(=O)C(c1ccccc1)C(O)c1ccccc1 (stereo not given)
- T/C (dose: 55.0 mg/kg/injection, schedule: Q01DX Z (ip), vehicle: methylcellulose (MC)): 113 % of control
- T/C (dose: 83.0 mg/kg/injection, schedule: Q01DX Z (ip), vehicle: methylcellulose (MC)): 94 % of control
- T/C (dose: 125.0 mg/kg/injection, schedule: Q01DX Z (ip), vehicle: methylcellulose (MC)): 93 % of control

SMILES: CCOP(=O)(OCC)O/N=C(/SC)C(C)C
- T/C (dose: 5.0 mg/kg/injection, schedule: Q01DX001 (ip), vehicle: saline): 100 % of control
- T/C (dose: 10.0 mg/kg/injection, schedule: Q01DX001 (ip), vehicle: saline): 111 % of control
- T/C (dose: 20.0 mg/kg/injection, schedule: Q01DX001 (ip), vehicle: saline): 103 % of control
- T/C (dose: 40.0 mg/kg/injection, schedule: Q01DX001 (ip), vehicle: saline): 100 % of control
- T/C (dose: 80.0 mg/kg/injection, schedule: Q01DX001 (ip), vehicle: saline): 116 % of control

SMILES: Brc1ccc(N(Cc2ccccc2)Cc2ccccc2)cc1
- T/C [9]: 100 % of control
- T/C [10]: 86 % of control
- T/C [11]: 89 % of control

SMILES: CCCCOP(=O)(OCCCC)O/C(C)=C(\C)OP(=O)(OCC)OCC
- T/C (dose: 25.0 mg/kg/injection, schedule: Q04DX002 (ip), vehicle: saline): 97 % of control and 102 % of control
- T/C [7]: 102 % of control
- T/C (dose: 50.0 mg/kg/injection, schedule: Q04DX002 (ip), vehicle: saline): 95 % of control and 97 % of control
- T/C [1]: 108 % of control
- T/C [3]: 108 % of control
- T/C (dose: 200.0 mg/kg/injection, schedule: Q04DX002 (ip), vehicle: saline): 97 % of control

SMILES: COC(=O)C(F)C(Br)C(=O)OC (stereo not given)
- T/C (dose: 3.12 mg/kg/injection, schedule: Q01DX009 (ip), vehicle: saline with Tween-80): 114 % of control
- T/C (dose: 6.25 mg/kg/injection, schedule: Q01DX009 (ip), vehicle: saline with Tween-80): 101 % of control
- T/C (dose: 12.5 mg/kg/injection, schedule: Q01DX009 (ip), vehicle: saline with Tween-80): 103 % of control
- T/C (dose: 25.0 mg/kg/injection, schedule: Q01DX009 (ip), vehicle: saline with Tween-80): 97 % of control
- T/C (dose: 50.0 mg/kg/injection, schedule: Q01DX009 (ip), vehicle: saline with Tween-80): 101 % of control

SMILES: CC(=O)OCCCCOC(C)=O
- T/C [12]: 105 % of control
- T/C [8]: 109 % of control
- T/C (dose: 400.0 mg/kg/injection, schedule: Q01DX001 (ip), vehicle: saline): 107 % of control

SMILES: OCc1nccn1Cc1ccccc1
- T/C (dose: 25.0 mg/kg/injection, schedule: Q01DX009 (ip), vehicle: water): 99 % of control
- T/C (dose: 50.0 mg/kg/injection, schedule: Q01DX009 (ip), vehicle: water): 100 % of control
- T/C [2]: 97 % of control
- T/C (dose: 100.0 mg/kg/injection, schedule: Q01DX009 (ip), vehicle: water): 100 % of control
- T/C [4]: 108 % of control
- T/C (dose: 200.0 mg/kg/injection, schedule: Q01DX009 (ip), vehicle: water): 106 % of control

SMILES: C=C1OC(=O)C(=O)N1CC(=O)O
- T/C [12]: 103 % of control
- T/C [8]: 106 % of control
